Source: ChEMBL document CHEMBL3259643 (Eur J Med Chem, 2014)
Active and inactive are the calls of the source. No cut-off for these calls is given here.

Key:
[1] = Apparent octanol-phosphate buffer partition coefficient, log D of the compound at 1 mg at pH 7.4 after 24 hrs by HPLC analysis; type: physicochemical
MDCK = assay: Cytotoxicity against MDCK cells at >10 uM after 48 to 72 hrs; type: cell-based, Canis lupus familiaris; conditions: dog
Neuraminidase = Neuraminidase (Influenza A virus, UniProt B4URF0); set-up: species or system Influenza A virus (A/WSN/1933(H1N1))
HEK-293T = assay: Cytotoxicity against human 293T cells at >10 uM after 48 to 72 hrs; type: cell-based
[2] = system: Influenza A virus (A/WSN/1933(H1N1)); assay: Antiviral activity against Influenza A virus (A/WSN/1933(H1N1)) infected in BALB/c mouse assessed as increase in survival rate at 0.12 umol/kg/day administered on day 0 intranasally bid prior to viral infection continued for day 1 to day 4 measured on day 9; type: functional
[3] = system: Influenza A virus (A/WSN/1933(H1N1)); assay: Antiviral activity against Influenza A virus (A/WSN/1933(H1N1)) infected in BALB/c mouse assessed as increase in survival rate at 2.6 umol/kg/day, po bid administered on day 0 prior to viral infection continued for day 1 to day 4 measured on day 14; type: functional, organism-based
[4] = system: Influenza A virus (A/WSN/1933(H1N1)); assay: Antiviral activity against Influenza A virus (A/WSN/1933(H1N1)) infected in BALB/c mouse assessed as increase in survival rate at 1.2 umol/kg/day administered on day 0 intranasally bid prior to viral infection continued for day 1 to day 4 measured on day 14; type: functional
[5] = Oral bioavailability in ICR mouse at 10 mg/kg; type: ADME, organism-based; conditions: in vivo
[6] = Cellular uptake in MDCK2 cells measured per mg of protein at 100 ug/mL after 120 mins by HPLC analysis; type: ADME, cell-based, Canis lupus familiaris; conditions: dog, mdck-ii, 2 h
[7] = Terminal half life in ICR mouse at 0.25 mg/kg, iv; type: ADME, organism-based; set-up: dose 0.25 mg/kg, route intravenous; conditions: in vivo, read-out: beta t1/2 (converted)
Mus musculus = assay: Bioavailability in ICR mouse at 0.25 mg/kg, iv; type: ADME, organism-based; conditions: in vivo
[8] = First order rate constant associated with the terminal portion of the curve in ICR mouse at 10 mg/kg, po; type: ADME, organism-based; set-up: dose 10 mg/kg, route oral; conditions: in vivo
[9] = AUC (0 to infinity) in ICR mouse at 0.25 mg/kg, iv; type: ADME, organism-based; set-up: time infinity, dose 0.25 mg/kg, route intravenous; conditions: plasma
[10] = AUC (0 to 12 hrs) in ICR mouse at 10 mg/kg, po; type: ADME, organism-based; set-up: time < 12 hr, dose 10 mg/kg, route oral; conditions: plasma
[11] = Cmax in ICR mouse at 10 mg/kg; type: ADME, organism-based; set-up: dose 10 mg/kg; conditions: in vivo
[12] = Terminal half life in ICR mouse at 10 mg/kg, po; type: ADME, organism-based; set-up: dose 10 mg/kg, route oral; conditions: in vivo, read-out: beta t1/2 (converted)
Caco-2 = assay: Permeability across apical to basolateral side in human Caco2 cells at 100 ug/mL after 15 to 120 mins by HPLC analysis; type: ADME, cell-based
[13] = AUC (0 to infinity) in ICR mouse at 10 mg/kg, po; type: ADME, organism-based; set-up: time infinity, dose 10 mg/kg, route oral; conditions: plasma
[14] = AUC (0 to 2 hrs) in ICR mouse at 0.25 mg/kg, iv; type: ADME, organism-based; set-up: time < 2 hr, dose 0.25 mg/kg, route intravenous; conditions: plasma
[15] = Tmax in ICR mouse at 10 mg/kg; type: ADME, organism-based; set-up: dose 10 mg/kg; conditions: in vivo
[16] = Apparent total clearance in ICR mouse at 10 mg/kg; type: ADME, organism-based; set-up: dose 10 mg/kg; conditions: in vivo, read-out: CLt/F (converted)
[17] = First order rate constant associated with the terminal portion of the curve in ICR mouse at 0.25 mg/kg, iv; type: ADME, organism-based; set-up: dose 0.25 mg/kg, route intravenous; conditions: in vivo

Chain of Neuraminidase (B4URF0 whole entry): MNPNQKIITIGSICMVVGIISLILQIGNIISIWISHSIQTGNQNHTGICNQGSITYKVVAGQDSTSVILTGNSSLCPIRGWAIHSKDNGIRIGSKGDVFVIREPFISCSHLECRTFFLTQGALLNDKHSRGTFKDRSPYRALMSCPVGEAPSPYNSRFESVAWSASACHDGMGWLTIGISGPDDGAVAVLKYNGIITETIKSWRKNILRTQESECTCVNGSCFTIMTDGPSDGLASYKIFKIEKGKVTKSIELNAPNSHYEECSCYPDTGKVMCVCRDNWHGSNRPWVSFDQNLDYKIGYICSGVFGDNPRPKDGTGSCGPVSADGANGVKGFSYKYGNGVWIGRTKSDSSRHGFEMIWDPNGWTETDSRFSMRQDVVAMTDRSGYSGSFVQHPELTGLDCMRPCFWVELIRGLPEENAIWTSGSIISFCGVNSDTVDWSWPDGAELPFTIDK

Structure (SMILES)	logD at 24 h [1]	Activity (MDCK)	IC50 (Neuraminidase)	Activity (HEK-293T)	Activity [2]	Activity [3]	further results
CCC(CC)O[C@@H]1C=C(P(=O)(O)OCCCc2ccccc2)C[C@H](N)[C@H]1NC(C)=O	0.28	Non-toxic	1.8 nM	Non-toxic	–	–	–
CCCCOP(=O)(O)C1=C[C@@H](OC(CC)CC)[C@H](NC(C)=O)[C@@H](NC(=N)N)C1	-0.16	Non-toxic	6.7 nM	Non-toxic	–	–	–
CCOP(=O)(O)C1=C[C@@H](OC(CC)CC)[C@H](NC(C)=O)[C@@H](NC(=N)N)C1 [TAMIPHOSPHOR MONOETHYL ESTER]	–	–	–	–	Active	Active	Activity [4]: Active
CCCCCCOP(=O)(O)C1=C[C@@H](OC(CC)CC)[C@H](NC(C)=O)[C@@H](NC(=N)N)C1	0.63	Non-toxic	4.1 nM	Non-toxic	Active	Active	bioavailability [5]: 12.6%; Drug uptake [6]: 13500 ng; half-life [7]: 0.36 h; F (Mus musculus): 100%; k el [8]: 0.000167 s⁻¹; AUC(0-inf) [9]: 173 ng·h/mL; AUC(0-t) at 12 h [10]: 361 ng·h/mL; Cmax [11]: 261 ng/mL; half-life [12]: 1.07 h; permeability (Caco-2): permeable; AUC(0-inf) [13]: 867 ng·h/mL; AUC(0-t) at 2 h [14]: 169 ng·h/mL; Tmax [15]: 1 h; CL/F [16]: 184 mL/min/kg; k el [17]: 0.000533 s⁻¹; Activity [4]: Active
CCCCCCOP(=O)(O)C1=C[C@@H](OC(CC)CC)[C@H](NC(C)=O)[C@@H](N)C1	0.3	Non-toxic	2.2 nM	Non-toxic	–	–	–
CCOC(=O)C1=C[C@@H](OC(CC)CC)[C@H](NC(C)=O)[C@@H](N)C1	–	–	–	–	–	Active	–
CCC(CC)O[C@@H]1C=C(P(=O)(O)OCCCc2ccccc2)C[C@H](NC(=N)N)[C@H]1NC(C)=O	0.66	Non-toxic	3.2 nM	Non-toxic	Active	Active	Drug uptake [6]: < 2000 ng; Activity [4]: Active
CCC(CC)O[C@@H]1C=C(P(=O)(O)OCCCc2c[nH]c3ccccc23)C[C@H](N)[C@H]1NC(C)=O	–	Non-toxic	1.7 nM	Non-toxic	–	–	–
CCCCOP(=O)(O)C1=C[C@@H](OC(CC)CC)[C@H](NC(C)=O)[C@@H](N)C1	-0.29	Non-toxic	6.9 nM	Non-toxic	–	–	–
CC(=O)N[C@H]1[C@H]([C@H](O)[C@H](O)CO)OC(C(=O)O)=C[C@@H]1NC(=N)N	–	–	–	–	inactive	–	–
CCOP(=O)(O)C1=C[C@@H](OC(CC)CC)[C@H](NC(C)=O)[C@@H](N)C1 [TAMIPHOSPHOR MONOETHYL ESTER]	–	Non-toxic	–	Non-toxic	–	–	–
